Among the data in patent US11504349B2, “Composition for preventing or treating TNF-related diseases, containing novel derivative as active ingredient, and method for inhibiting TNF activity by using same” (ILAB, priority 2017, dated 2022) are inhibition and melting point values, retold here.

Each structure is given as a SMILES string.

Data set [1] has as its target TNF (Homo sapiens, UniProt P01375). The experiment in a line: TNF-neutralization bioassay: TNF-induced cell death of LM cells (MTT). It counts as cell-based. The conditions noted are these: compound 50 μM, TNF 20 ng/ml, actinomycin D, LM cells, 24 hours. How it is done: First, the addition of recombinant TNF to mouse fibroblast LM cells induces cell death, and thus, by using the same, the TNF-neutralization bioassay was constructed. In other words, LM cells were pretreated with TNF (20 ng/ml) and the compounds synthesized in the above examples at various concentrations (5×10^4 cells/well), and a sensitizer actinomycin D ([…]) was added, and cultured in a CO2 incubator for 24 hours, and then the MTT assay was carried out. At this time, 10 μl of MTT (5 mg/ml stock) was added, reacted for 4 hours, and then dissolved in DMSO to measure the absorbance at 570 nm. First, the TNF cell death inhibition/neutralization action of TNF-target expected compounds at single concentration (50 or 10 μM) was measured. Second, IC50 values were determined by treating with the compounds having an excellent effect at different concentrations. The % inhibition of TNF was calculated using the following formula: % inhibition of TNF=(OD value of a group treated with TNF and compound−OD value of TNF treated group/(OD value of TNF untreated group−OD value of TNF treated group)×100.
IC50 values were statistically analyzed using Prism 6 (GraphPad) (IC50: 50% inhibitory concentration, CC50: 50% cytotoxic concentration).

Chain of TNF (P01375 77-233 limits assumed): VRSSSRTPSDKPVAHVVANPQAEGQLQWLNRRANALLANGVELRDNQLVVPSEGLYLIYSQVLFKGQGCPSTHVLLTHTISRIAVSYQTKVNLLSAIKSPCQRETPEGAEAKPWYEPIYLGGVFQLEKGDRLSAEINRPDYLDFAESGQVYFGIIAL

`COc1ccc2c(=O)c(C(=O)O)c(-c3cccc(F)c3)oc2c1` [Example 1, 2-(3-fluorophenyl)-3-carboxy-7-methoxy-(4H)-4-benzopyranone] gave a melting point of 214 to 215 °C. In data set [1], 50 µM produced 39.1% inhibition.
In the same order, the values of `COc1cccc2c(=O)c(C(=O)O)c(-c3ccco3)oc12` [Example 2, 2-(2-furanyl)-3-carboxy-8-methoxy-(4H)-4-benzopyranone] are 195 to 197 °C and 46.6%.
The matching figures for `COc1ccc2c(=O)c(C(=O)O)c(-c3ccco3)oc2c1` [Example 3, 2-(2-furanyl)-3-carboxy-7-methoxy-(4H)-4-benzopyranone]: 217 to 219 °C and 26.3%.
The compound `COc1ccc2oc(-c3ccco3)c(C(=O)O)c(=O)c2c1` [Example 4, 2-(2-furanyl)-3-carboxy-6-methoxy-(4H)-4-benzopyranone] showed a melting point of 205 to 207 °C. The inhibition at 50 µM in data set [1] is 24.6%.
In the same order, the values of `COc1cccc2c(=O)c(C(=O)O)c(-c3cccc(C)c3)oc12` [Example 5, 2-(3-methylphenyl)-3-carboxy-8-methoxy-(4H)-4-benzopyranone] are 192 to 195 °C and 34.4%.
In the same order, the values of `COc1ccc2c(=O)c(C(=O)O)c(-c3cccc(C)c3)oc2c1` [Example 6, 2-(3-methylphenyl)-3-carboxy-7-methoxy-(4H)-4-benzopyranone] are 183 to 184 °C and 46%.
In the same order, the values of `COc1ccc2oc(-c3cccc(C)c3)c(C(=O)O)c(=O)c2c1` [Example 7, 2-(3-methylphenyl)-3-carboxy-6-methoxy-(4H)-4-benzopyranone] are 198 to 199 °C and 47%.
Turning to `COc1ccc(-c2oc3ccccc3c(=O)c2C(=O)O)cc1OC` [Example 8, 2-(3,4-dimethoxyphenyl)-3-carboxy-(4H)-4-benzopyranone], the melting point was 237 to 238 °C. The compound also displayed an inhibition at 50 µM in data set [1] of 24.3%.
In the same order, the values of `COc1ccc2c(=O)c(C(=O)O)c(-c3ccc(OC)c(OC)c3)oc2c1` [Example 9, 2-(3,4-dimethoxyphenyl)-3-carboxy-7-methoxy-(4H)-4-benzopyranone] are 208 to 210 °C and 49.2%.
In turn, `COc1ccc2c(=O)c(C(=O)O)c(-c3ccccc3Cl)oc2c1` [Example 10, 2-(2-chlorophenyl)-3-carboxy-7-methoxy-(4H)-4-benzopyranone] had a melting point of 130 to 132 °C. The same compound yielded an inhibition at 50 µM in data set [1] of 45.6%.
The matching figures for `O=C(O)c1c(-c2ccccc2Cl)oc2ccccc2c1=O` [Example 11, 2-(2-chlorophenyl)-3-carboxy-(4H)-4-benzopyranone]: 133 to 135 °C and 60.6%.
Take `COc1cccc2c(=O)c(C(=O)O)c(-c3cccs3)oc12` [Example 12, 2-(2-thiophenyl)-3-carboxy-8-methoxy-(4H)-4-benzopyranone]: the melting point was in the range of 196 to 198 °C. This compound also yielded an inhibition at 50 µM in data set [1] of 62.5%.
The matching figures for `COc1ccc2c(=O)c(C(=O)O)c(-c3cccs3)oc2c1` [Example 13, 2-(2-thiophenyl)-3-carboxy-7-methoxy-(4H)-4-benzopyranone]: 205 to 207 °C and 55.9%.
The matching figures for `COc1ccc2oc(-c3cccs3)c(C(=O)O)c(=O)c2c1` [Example 14, 2-(2-thiophenyl)-3-carboxy-6-methoxy-(4H)-4-benzopyranone]: 172 to 174 °C and 38.8%.
In the same order, the values of `O=C(O)c1c(-c2cccs2)oc2ccccc2c1=O` [Example 15, 2-(2-thiophenyl)-3-carboxy-(4H)-4-benzopyranone] are 175 to 176 °C and 47.5%.
As for `O=C(O)c1c(-c2ccco2)oc2ccccc2c1=O` [Example 18, 2-(2-furanyl)-3-carboxy-(4H)-4-benzopyranone], the melting point was in the range of 202 to 205 °C. Moreover, in data set [1], 50 µM produced 48.6% inhibition.
As for `Cc1cccc(-c2oc3ccccc3c(=O)c2C(=O)O)c1` [Example 19, 2-(3-methylphenyl)-3-carboxy-(4H)-4-benzopyranone], the melting point was in the range of 162 to 164 °C. Besides, in data set [1], at 50 µM the inhibition was 48.3%.
Take `Cc1cccc2c(=O)c(C(=O)O)c(-c3ccco3)oc12` [Example 20, 2-(2-furanyl)-3-carboxy-8-methyl-(4H)-4-benzopyranone]: the melting point lay within 227 to 228 °C. The compound further showed an inhibition at 50 µM in data set [1] of 59%.
The matching figures for `Cc1ccc2c(=O)c(C(=O)O)c(-c3ccco3)oc2c1` [Example 21, 2-(2-furanyl)-3-carboxy-7-methyl-(4H)-4-benzopyranone]: 217 to 218 °C and 55.2%.
The compound `Cc1ccc2oc(-c3ccco3)c(C(=O)O)c(=O)c2c1` [Example 22, 2-(2-furanyl)-3-carboxy-6-methyl-(4H)-4-benzopyranone] returned a melting point of 195 to 197 °C. In data set [1], this compound came in with an inhibition at 50 µM of 50.4%.
In the same order, the values of `Cc1cccc(-c2oc3c(C)cccc3c(=O)c2C(=O)O)c1` [Example 25, 2-(3-methylphenyl)-3-carboxy-8-methyl-(4H)-4-benzopyranone] are 209 to 211 °C and 41%.
The matching figures for `Cc1cccc(-c2oc3cc(C)ccc3c(=O)c2C(=O)O)c1` [Example 26, 2-(3-methylphenyl)-3-carboxy-7-methyl-(4H)-4-benzopyranone]: 152 to 155 °C and 45.1%.
`Cc1cccc(-c2oc3ccc(C)cc3c(=O)c2C(=O)O)c1` [Example 27, 2-(3-methylphenyl)-3-carboxy-6-methyl-(4H)-4-benzopyranone] had a melting point of 192 to 195 °C. Besides, testing at 50 µM in data set [1] gave an inhibition of 65.2%.
The matching figures for `Cc1cccc(-c2oc3cc(Cl)ccc3c(=O)c2C(=O)O)c1` [Example 28, 2-(3-methylphenyl)-3-carboxy-7-chloro-(4H)-4-benzopyranone]: 179 to 181 °C and 34.9%.
On to `Cc1cccc(-c2oc3ccc(Cl)cc3c(=O)c2C(=O)O)c1` [Example 29, 2-(3-methylphenyl)-3-carboxy-6-chloro-(4H)-4-benzopyranone], for which the melting point was in the range of 218 to 220 °C. Further, at 50 µM the inhibition in data set [1] was 45.7%.
In the same order, the values of `Cc1cccc2c(=O)c(C(=O)O)c(-c3cccs3)oc12` [Example 31, 2-(2-thiophenyl)-3-carboxy-8-methyl-(4H)-4-benzopyranone] are 205 to 206 °C and 24.8%.
The matching figures for `Cc1ccc2c(=O)c(C(=O)O)c(-c3cccs3)oc2c1` [Example 32, 2-(2-thiophenyl)-3-carboxy-7-methyl-(4H)-4-benzopyranone]: 202 to 203 °C and 23.6%.
`Cc1ccc2oc(-c3cccs3)c(C(=O)O)c(=O)c2c1` [Example 33, 2-(2-thiophenyl)-3-carboxy-6-methyl-(4H)-4-benzopyranone] yielded a melting point of 153 to 155 °C. The compound further yielded an inhibition at 50 µM in data set [1] of 20.7%.
As to `O=C(O)c1c(-c2cccs2)oc2cc(Cl)ccc2c1=O` [Example 34, 2-(2-thiophenyl)-3-carboxy-7-chloro-(4H)-4-benzopyranone], the melting point is 232 to 233 °C. In data set [1], this compound gave an inhibition at 50 µM of 21.7%.
In the same order, the values of `O=C(O)c1c(-c2cccs2)oc2ccc(Cl)cc2c1=O` [Example 35, 2-(2-thiophenyl)-3-carboxy-6-chloro-(4H)-4-benzopyranone] are 202 to 204 °C and 28.1%.
In the same order, the values of `O=C(O)c1c(-c2cccs2)oc2ccc(Br)cc2c1=O` [Example 36, 2-(2-thiophenyl)-3-carboxy-6-bromo-(4H)-4-benzopyranone] are 210 to 212 °C and 27%.
With `COc1ccc(-c2oc3c(C)cccc3c(=O)c2C(=O)O)cc1OC` [Example 37, 2-(3,4-dimethoxyphenyl)-3-carboxy-8-methyl-(4H)-4-benzopyranone], the melting point is 210 to 212 °C. The same compound displayed an inhibition at 50 µM in data set [1] of 33.4%.
`COc1ccc(-c2oc3cc(C)ccc3c(=O)c2C(=O)O)cc1OC` [Example 38, 2-(3,4-dimethoxyphenyl)-3-carboxy-7-methyl-(4H)-4-benzopyranone] had a melting point of 200 to 201 °C. The inhibition at 50 µM in data set [1] came to 30.9%.
The matching figures for `COc1ccc(-c2oc3cc(Cl)ccc3c(=O)c2C(=O)O)cc1OC` [Example 39, 2-(3,4-dimethoxyphenyl)-3-carboxy-7-chloro-(4H)-4-benzopyranone]: 226 to 227 °C and 24.5%.
In the case of `Cc1cccc2c(=O)c(C(=O)O)c(-c3cccc(F)c3)oc12` [Example 41, 2-(3-fluorophenyl)-3-carboxy-8-methyl-(4H)-4-benzopyranone], the melting point lay within 227 to 229 °C. Moreover, the inhibition at 50 µM in data set [1] is 37.2%.

A word on the inhibition: it is the percentage by which the read-out fell short of the control. By melting point is commonly meant the temperature, or range, at which the solid turns liquid.
